Results published in the supplement of paper PMC11551840.

What was measured:
Experiment in all cases: IC50 (cell viability, 72 h) (ln(µM))
[1] = test system: SCC-9
Procedure: (§1)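 Discovery screen of OSCC cell lines in 1,536-well plates. Cells were treated 24 h after seeding with 7 concentrations spanning a 1,000-fold half-log range for 72 h, and viability was read by CellTiter-Glo 2.0 and normalised to DMSO (1) and medium-only (0) controls. IC50 comes from a two-parameter logistic nonlinear mixed-effects fit and is reported as natural log of IC50 in µM.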

[2] = test system: HO-1-u-1
Procedure: as §1

[3] = test system: ORL-207
Procedure: as §1

[4] = test system: ORL-215
Procedure: as §1

[5] = test system: ORL-48
Procedure: as §1

[6] = test system: ORL-204
Procedure: as §1

[7] = test system: ORL-188
Procedure: as §1

[8] = test system: SAS
Procedure: as §1

[9] = test system: ORL-214
Procedure: as §1

[10] = test system: HSC-2
Procedure: as §1

[11] = test system: ORL-136
Procedure: as §1

[12] = test system: ORL-166
Procedure: as §1

[13] = test system: ORL-153
Procedure: as §1

[14] = test system: ORL-195
Procedure: as §1

[15] = test system: BICR10
Procedure: as §1

[16] = test system: ORL-150
Procedure: as §1

[17] = test system: PE-CA-PJ15
Procedure: as §1

[18] = test system: ORL-115
Procedure: as §1

[19] = test system: HSC-4
Procedure: as §1

[20] = test system: ORL-174
Procedure: as §1

[21] = test system: ORL-156
Procedure: as §1

Compound	IC50 (ln) [1]	IC50 (ln) [2]	IC50 (ln) [3]	IC50 (ln) [4]	IC50 (ln) [5]	IC50 (ln) [6]	IC50 (ln) [7]	IC50 (ln) [8]	IC50 (ln) [9]	IC50 (ln) [10]	IC50 (ln) [11]	IC50 (ln) [12]	IC50 (ln) [13]	IC50 (ln) [14]	IC50 (ln) [15]	IC50 (ln) [16]	IC50 (ln) [17]	IC50 (ln) [18]	IC50 (ln) [19]	IC50 (ln) [20]	IC50 (ln) [21]
Cc1cc(-c2nc(-c3ccc(OC(F)(F)F)cc3)no2)nn1Cc1ccnc(N2CCN(C3CC3)CC2)c1 [BAY-87-2243]	-3.5	-1.24	-2.38	-2.31	-1.95	-2.77	-0.131	-3.51	-0.338	-1.04	-0.901	-2.29	-0.683	-1.57	-1.01	-2.36	-1.76	-5.09	-5.92	-0.785	-0.734
CC[C@@H]1C(=O)N(C)c2cnc(Nc3ccc(C(=O)NC4CCN(C)CC4)cc3OC)nc2N1C1CCCC1 [BI-2536]	0.0591	-2.33	-2.92	-3.45	-1.8	-0.226	-2.94	-1.93	-2.28	-2.87	1.66	-3.02	-2.08	-2.26	-2.78	-3.5	-0.628	-2.1	-1.33	-2.58	-2.91
CC(C)C[C@H](NC(=O)[C@H](Cc1ccccc1)NC(=O)c1cnccn1)B(O)O [Bortezomib]	-4.18	-5.69	-5.3	-5.32	-4.47	-4.52	-5.03	-5.88	-5.37	-5.55	-4.79	-5.43	-4.84	-5.04	-4.95	-4.88	-4.28	-4.36	-4.5	-5.44	-4.46
CC[C@@]1(O)C(=O)OCc2c1cc1n(c2=O)Cc2cc3ccccc3nc2-1 [Camptothecin]	1.24	-0.864	-4.09	-2.87	-2.57	-3.82	-3.95	-4.38	-4.76	-4	-1.37	-3.18	-3.34	-2.2	-1.45	-3.04	-2.24	-1.73	-3.06	-2.91	-2.15
Cc1c2oc3c(C)ccc(C(=O)N[C@@H]4C(=O)N[C@H](C(C)C)C(=O)N5CCC[C@H]5C(=O)N(C)CC(=O)N(C)[C@@H](C(C)C)C(=O)O[C@@H]4C)c3nc-2c(C(=O)N[C@@H]2C(=O)N[C@H](C(C)C)C(=O)N3CCC[C@H]3C(=O)N(C)CC(=O)N(C)[C@@H](C(C)C)C(=O)O[C@@H]2C)c(N)c1=O [Dactinomycin]	-2.9	-5.18	-5.32	-4.6	-5.43	-4.99	-5.69	-4.65	-5.57	-5.7	-4.38	-6.04	-6.27	-5.67	-3.88	-5.32	-4.55	-4.09	-3.96	-5.84	-5.7
CCc1cnn2c(NCc3ccc[n+]([O-])c3)cc(N3CCCC[C@H]3CCO)nc12 [Dinaciclib]	-1.35	-3.83	-3.83	-4.15	-3.44	-3.8	-4.08	-4.47	-4.09	-4.36	-2.65	-4.64	-3.5	-3.57	-2.5	-3.93	-3.29	-4.03	-3.41	-4.02	-4.06
CC(=O)O[C@@]12CO[C@@H]1C[C@H](O)[C@@]1(C)C(=O)[C@H](O)C3=C(C)[C@@H](OC(=O)[C@H](O)[C@@H](NC(=O)OC(C)(C)C)c4ccccc4)C[C@@](O)([C@@H](OC(=O)c4ccccc4)[C@H]21)C3(C)C [Docetaxel]	-3.63	-4.77	-6.77	-6.3	-6.36	-5.44	-7	-3.91	-6.46	-6.54	-2.74	-5.53	-5.35	-5.11	-5.07	-6.63	-3.61	-4.57	-4.06	-6.19	-4.72
COc1ncc(-c2ccc3nccc(-c4ccnnc4)c3c2)cc1NS(=O)(=O)c1ccc(F)cc1F [Omipalisib]	-1.11	-3.13	-3.51	-2.45	-3.43	-2.59	-3.88	-1.24	-3.91	-4.69	-2.66	-2.96	–	-3.16	-2.02	-4.18	-1.36	-1.58	-0.985	-3.91	-3.31
